Data as given in ChEMBL document CHEMBL4265877, “Optimization of permeability in a series of pyrrolotriazine inhibitors of IRAK4” (Bioorg Med Chem, 2018).

Experiments:
[1] = Lipophilicity, log D of the compound at pH 7.4 by shake flask method; assay type: physicochemical; settings: buffer
[2] = Intrinsic clearance in human microsomes assessed per mg protein; assay type: ADME, Microsome; settings: read-out: CLH
[3] = Apparent permeability from apical to basolateral side in human Caco2 cells; assay type: ADME, cell-based; settings: Caco-2

For `CN(C)[C@H]1CC[C@H](Nc2ncnn3cccc23)CC1`, the logD [1] was 0 and the microsomal CLint [2] was under 3 µL/min/mg.

For `CN(C)[C@H]1CC[C@H](Nc2ncnc3ccoc23)CC1`, the logD [1] was -0.7.

Work on `CN(C)[C@H]1CC[C@H](Nc2ncnc3ccn(C4CCOCC4)c23)CC1` yielded a logD [1] of -0.6.

In the case of `CN(C)[C@H]1CC[C@H](Nc2ncnc3cc[nH]c23)CC1`, the logD [1] is reported as -0.3 and the microsomal CLint [2] is reported as under 3 µL/min/mg.

Work on `Cc1ccn2ncnc(N[C@H]3CC[C@H](N(C)C)CC3)c12` yielded a logD [1] of 0.2 and a Papp A→B [3] of 36 ×10⁻⁶ cm/s.

`Cn1ccc2ncnc(N[C@H]3CC[C@H](N(C)C)CC3)c21` showed a logD [1] of -0.8.

Work on `CN(C)[C@H]1CC[C@H](Nc2ncnc3cscc23)CC1` yielded a logD [1] of 0.3 and a microsomal CLint [2] of 39 µL/min/mg.

Work on `CN(C)[C@H]1CC[C@H](Nc2ncnc3ccsc23)CC1` yielded a logD [1] of -0.2.
